The target in this experiment is T1, commercial GSK3beta (Millipore) (Homo sapiens, UniProt P49841).
T1 construct: purchased Millipore
Kind of experiment: biochemical. The protocol: In a fourth protocol: 7.5 μM of prephosphorylated GS1 peptide and 10 μM ATP (containing 300,000 cpm of ^33P-ATP) were incubated in 50 mM Hepes, pH 7.2, 1 mM DTT, 1 mM MgCl2, 1 mM EGTA, 0.01% Tween 20 buffer for 90 minutes at room temperature in the presence of commercial GSK3beta (Millipore) (total reaction volume: 100 microliters).
Inhibitors were solubilised in DMSO (final solvent concentration in the reaction medium, 1%).
The reaction was stopped with 100 microliters of a solution made of 25 g polyphosphoric acid (85% P2O5), 126 ml 85% H3PO4, H2O to 500 ml and then diluted to 1:100 before use. An aliquot of the reaction mixture was then transferred to Whatman P81 cation exchange filters and rinsed with the solution described above. Incorporated ^33P radioactivity was determined by liquid scintillation spectrometry.
(Woodgett, J. R. (1989) Analytical Biochemistry 180, 237-241.

Setting [1] is: protocol 4: 7.5 μM GS1 peptide, 10 μM ATP, 90 minutes at room temperature, read-out: GSK3β inhibitory activity IC50.

Structures are written as SMILES. Like-named read-outs stand apart in the source and are kept apart here.

T1 sequence (P49841 whole entry): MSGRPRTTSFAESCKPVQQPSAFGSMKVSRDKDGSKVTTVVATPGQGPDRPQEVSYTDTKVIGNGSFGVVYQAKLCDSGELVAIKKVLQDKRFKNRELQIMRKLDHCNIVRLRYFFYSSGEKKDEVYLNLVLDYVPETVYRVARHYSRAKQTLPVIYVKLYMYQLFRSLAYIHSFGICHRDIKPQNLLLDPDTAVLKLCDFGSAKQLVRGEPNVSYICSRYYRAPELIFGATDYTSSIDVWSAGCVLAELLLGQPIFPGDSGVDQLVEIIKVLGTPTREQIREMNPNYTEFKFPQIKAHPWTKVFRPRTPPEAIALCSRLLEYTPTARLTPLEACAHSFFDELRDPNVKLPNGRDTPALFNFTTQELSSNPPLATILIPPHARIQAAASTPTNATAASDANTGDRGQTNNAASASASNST

`O=C(NC1COCCn2c1nc(-c1ccncn1)cc2=O)c1cc(F)cc2c1OCOC2` (racemic) [compound 12, (+/−)-6-Fluoro-4H-benzo[1,3]dioxine-8-carboxylic acid (4-oxo-2-pyrimidin-4-yl-5,6,8,9-tetrahydro-4H-7-oxa-1,4-a-diaza-benzocyclohepten-9-yl)-amide]: the IC50 under setting [1] is 5 nM.

For the compound `CSc1ncc(Cl)c(C(=O)NC2COCCn3c2nc(-c2ccncn2)cc3=O)n1` (racemic) [compound 15, (+/−)-5-Chloro-2-methylsulfanyl-pyrimidine-4-carboxylic acid (4-oxo-2-pyrimidin-4-yl-5,6,8,9-tetrahydro-4H-7-oxa-1,4-a-diaza-benzocyclohepten-9-yl)-amide], the concentration for half-maximal inhibition (IC50) under setting [1] is 31 nM.

Turning to `O=C(NC1COCCn2c1nc(-c1ccncn1)cc2=O)c1ccccn1` (racemic) [compound 17, (+/−)-Pyridine-2-carboxylic acid (4-oxo-2-pyrimidin-4-yl-5,6,8,9-tetrahydro-4H-7-oxa-1,4-a-diaza-benzocyclohepten-9-yl)-amide], the midpoint of inhibition, the IC50, lay at 15 nM.

With `CSc1ncc(Br)c(C(=O)NC2COCCn3c2nc(-c2ccncn2)cc3=O)n1` (racemic) [compound 18, (+/−)-5-Bromo-2-methylsulfanyl-pyrimidine-4-carboxylic acid (4-oxo-2-pyrimidin-4-yl-5,6,8,9-tetrahydro-4H-7-oxa-1,4-a-diaza-benzocyclohepten-9-yl)-amide], the IC50 under setting [1] is 52 nM.

For the origin of these results see patent publication US8501728B2, “Substituted heteroarylamide oxazepinopyrimidone derivatives” (priority 2008, dated 2013).
